Data taken from patent US11530222B2, “Substituted pyrrolopyrimidine and pyrazolopyrimidine as Bruton's tyrosine kinase (BTK) degraders” (ACCUTAR BIOTECHNOLOGY INC., priority 2021, dated 2022).

target: T1, BTK (Homo sapiens, UniProt Q06187); assay: BTK degradative activity in a RAMOS cell line (Western blot); format: cell-based; details: 6 hours after administration, read-out: RAMOS BTK Degradation DC50
T1 construct: BTK Degradative Activity of Exemplary Compounds of the Present Disclosure in a RAMOS Cell Line; host or cells: RAMOS
Protocol: RAMOS (ATCC) cells were plated in 24-well plates at 8×10^5 cells/well in the RPMI growth medium containing 10% heat-inactivated FBS and 1× Penicillin Streptomycin, and then incubated at 37° C. overnight. The following day, the test compound was administered to the cells by using 1000× compound stock solution prepared in DMSO at various concentrations. After administration of the compound, the cells were then incubated at 37° C. for 6 hours.
Upon completion, the cells were collected by centrifugation and lysed in Laemmli sample buffer (1×; VWR International). Proteins in cell lysate were separated by SDS-PAGE and transferred to Odyssey nitrocellulose membranes (Licor) with Iblot® dry blotting transfer system (ThermoFisher). Nonspecific binding was blocked by incubating membranes with Intercept Blocking Buffer (Licor) for 1 hour at room temperature with gentle shaking. The membranes were then incubated overnight at 4° C. with primary antibodies anti-BTK (Cell signaling, cat. #8547) and anti-GAPDH (Cell signaling, cat. #5179) diluted in Intercept Blocking Buffer containing 0.1% Tween 20. After washing 3 times with TBS-T, the membranes were incubated with IRDye® 800CW goat anti-mouse IgG (1:20,000, Licor) or IRDye® 800CW goat anti-rabbit IgG (1:20,000, Licor) for 1 hour. After TBS-T washes, membranes were rinsed in TBS and scanned on Odyssey® CLx Imaging System (Licor). The bands were quantified using Image Studio™ Software (Licor).
Table 3 summarizes the BTK degradative activity of exemplary compounds of the present disclosure in a RAMOS cell line 6 hours after administration. The DC50 values (i.e., the concentration of test compound at which 50% of the target protein is degraded) were calculated. A designation of “A” corresponds to a DC50 value less than 10 nM. A designation of “B” corresponds to a DC50 value greater than or equal to 10 nM and less than 100 nM. A designation of “C” corresponds to a DC50 value greater than or equal to 100 nM.

T1 sequence (Q06187 whole entry): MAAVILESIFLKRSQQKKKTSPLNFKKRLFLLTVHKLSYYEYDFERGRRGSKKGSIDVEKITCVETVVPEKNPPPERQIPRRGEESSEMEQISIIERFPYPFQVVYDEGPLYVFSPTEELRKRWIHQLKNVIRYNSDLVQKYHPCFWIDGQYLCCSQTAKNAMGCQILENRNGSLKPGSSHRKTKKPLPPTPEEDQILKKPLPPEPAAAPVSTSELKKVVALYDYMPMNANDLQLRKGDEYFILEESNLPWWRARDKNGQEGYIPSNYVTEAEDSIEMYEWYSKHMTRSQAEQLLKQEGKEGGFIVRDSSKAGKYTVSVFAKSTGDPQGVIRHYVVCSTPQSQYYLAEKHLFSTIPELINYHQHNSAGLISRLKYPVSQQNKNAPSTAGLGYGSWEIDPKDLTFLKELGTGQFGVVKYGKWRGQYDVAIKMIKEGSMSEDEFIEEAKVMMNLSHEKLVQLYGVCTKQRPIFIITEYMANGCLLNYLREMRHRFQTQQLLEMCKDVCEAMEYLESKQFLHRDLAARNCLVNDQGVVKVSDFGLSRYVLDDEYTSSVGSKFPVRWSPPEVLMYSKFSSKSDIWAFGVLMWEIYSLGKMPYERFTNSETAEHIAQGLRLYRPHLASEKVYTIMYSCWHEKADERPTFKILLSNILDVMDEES

Question: How did the DC50 turn out when `O=C1CCC(N2C(=O)c3ccc(N4CCN(CCCC(=O)N5CCC[C@@H](Nc6ncnc7[nH]cc(C(=O)c8ccc(Oc9ccccc9)cc8Cl)c67)C5)CC4)cc3C2=O)C(=O)N1` (stereo partly drawn) [Compound 19, 5-(4-(4-((R)-3-((5-(2-chloro-4-phenoxybenzoyl)-7H-pyrrolo[2,3-d]pyrimidin-4-yl)amino)piperidin-1-yl)-4-oxobutyl)piperazin-1-yl)-2-(2,6-dioxopiperidin-3-yl)isoindoline-1,3-dione] was run?
Answer: 10 to 100 nM

Question: `O=C1CC[C@H](N2Cc3cc(N4CCN(CCCC(=O)N5CCC[C@@H](Nc6ncnc7[nH]cc(C(=O)c8ccc(Oc9ccccc9)cc8Cl)c67)C5)CC4)ccc3C2=O)C(=O)N1` [Compound 20, (S)-3-(5-(4-(4-((R)-3-((5-(2-chloro-4-phenoxybenzoyl)-7H-pyrrolo[2,3-d]pyrimidin-4-yl)amino)piperidin-1-yl)-4-oxobutyl)piperazin-1-yl)-1-oxoisoindolin-2-yl)piperidine-2,6-dione] was tested. Which DC50 did it give?
Answer: 10 to 100 nM

Question: `O=C1CC[C@H](N2Cc3cc(N4CCN(CCCCCCC(=O)N5CCC(Nc6ncnc7[nH]cc(C(=O)c8ccc(Oc9ccccc9)cc8Cl)c67)CC5)CC4)ccc3C2=O)C(=O)N1` [Compound 21, (S)-3-(5-(4-(7-(4-((5-(2-chloro-4-phenoxybenzoyl)-7H-pyrrolo[2,3-d]pyrimidin-4-yl)amino)piperidin-1-yl)-7-oxoheptyl)piperazin-1-yl)-1-oxoisoindolin-2-yl)piperidine-2,6-dione] was tested. Which DC50 did it give?
Answer: 10 to 100 nM

Question: For `O=C1CC[C@H](N2C(=O)c3ccc(N4CCN(CCCCCCC(=O)N5CCC(Nc6ncnc7[nH]cc(C(=O)c8ccc(Oc9ccccc9)cc8Cl)c67)CC5)CC4)cc3C2=O)C(=O)N1` [Compound 22, 5-(4-(7-(4-((5-(2-chloro-4-phenoxybenzoyl)-7H-pyrrolo[2,3-d]pyrimidin-4-yl)amino)piperidin-1-yl)-7-oxoheptyl)piperazin-1-yl)-2-(2,6-dioxopiperidin-3-yl)isoindoline-1,3-dione], which DC50 is on record?
Answer: 10 to 100 nM

Question: For `O=C1CCC(N2C(=O)c3ccc(N4CCN(CCCC(=O)N5CCC(Nc6ncnc7[nH]cc(C(=O)c8ccc(Oc9ccccc9)cc8Cl)c67)CC5)CC4)cc3C2=O)C(=O)N1` (stereo not drawn) [Compound 23, 5-(4-(4-(4-((5-(2-chloro-4-phenoxybenzoyl)-7H-pyrrolo[2,3-d]pyrimidin-4-yl)amino)piperidin-1-yl)-4-oxobutyl)piperazin-1-yl)-2-(2,6-dioxopiperidin-3-yl)isoindoline-1,3-dione], which DC50 is on record?
Answer: 10 to 100 nM

Question: `O=C1CC[C@H](N2Cc3cc(N4CCN(CCCC(=O)N5CCC(Nc6ncnc7[nH]cc(C(=O)c8ccc(Oc9ccccc9)cc8Cl)c67)CC5)CC4)ccc3C2=O)C(=O)N1` [Compound 24, (S)-3-(5-(4-(4-(4-((5-(2-chloro-4-phenoxybenzoyl)-7H-pyrrolo[2,3-d]pyrimidin-4-yl)amino)piperidin-1-yl)-4-oxobutyl)piperazin-1-yl)-1-oxoisoindolin-2-yl)piperidine-2,6-dione] was tested. Which DC50 did it give?
Answer: 10 to 100 nM

Question: `O=C1CC[C@H](N2Cc3cc(N4CCN(CCCCC(=O)N5CCC(Nc6ncnc7[nH]cc(C(=O)c8ccc(Oc9ccccc9)cc8Cl)c67)CC5)CC4)ccc3C2=O)C(=O)N1` [Compound 25, (S)-3-(5-(4-(5-(4-((5-(2-chloro-4-phenoxybenzoyl)-7H-pyrrolo[2,3-d]pyrimidin-4-yl)amino)piperidin-1-yl)-5-oxopentyl)piperazin-1-yl)-1-oxoisoindolin-2-yl)piperidine-2,6-dione] was tested. Which DC50 did it give?
Answer: < 10 nM

Question: How did the DC50 turn out when `O=C1CCC(N2C(=O)c3ccc(N4CCN(CCCN5CCC(Nc6ncnc7[nH]cc(C(=O)c8ccc(Oc9ccccc9)cc8Cl)c67)CC5)CC4)cc3C2=O)C(=O)N1` (stereo not drawn) [Compound 26, 5-(4-(3-(4-((5-(2-chloro-4-phenoxybenzoyl)-7H-pyrrolo[2,3-d]pyrimidin-4-yl)amino)piperidin-1-yl)propyl)piperazin-1-yl)-2-(2,6-dioxopiperidin-3-yl)isoindoline-1,3-dione] was run?
Answer: 10 to 100 nM

Question: With `O=C1CCC(N2C(=O)c3ccc(N4CCN(CCCCN5CCC(Nc6ncnc7[nH]cc(C(=O)c8ccc(Oc9ccccc9)cc8Cl)c67)CC5)CC4)cc3C2=O)C(=O)N1` (stereo not drawn) [Compound 27, 5-(4-(4-(4-((5-(2-chloro-4-phenoxybenzoyl)-7H-pyrrolo[2,3-d]pyrimidin-4-yl)amino)piperidin-1-yl)butyl)piperazin-1-yl)-2-(2,6-dioxopiperidin-3-yl)isoindoline-1,3-dione] as the compound, how does the DC50 read?
Answer: 10 to 100 nM

Question: Which DC50 does the source give for `O=C1CCC(N2C(=O)c3ccc(N4CCN(CCCCCC(=O)N5CCC(Nc6ncnc7[nH]cc(C(=O)c8ccc(Oc9ccccc9)cc8Cl)c67)CC5)CC4)cc3C2=O)C(=O)N1` (stereo not drawn) [Compound 28, 5-(4-(6-(4-((5-(2-chloro-4-phenoxybenzoyl)-7H-pyrrolo[2,3-d]pyrimidin-4-yl)amino)piperidin-1-yl)-6-oxohexyl)piperazin-1-yl)-2-(2,6-dioxopiperidin-3-yl)isoindoline-1,3-dione] here?
Answer: 10 to 100 nM

Question: `O=C1CCC(N2C(=O)c3ccc(N4CCN(CCCCCCCN5CCC[C@@H](Nc6ncnc7[nH]cc(C(=O)c8ccc(Oc9ccccc9)cc8Cl)c67)C5)CC4)cc3C2=O)C(=O)N1` (stereo partly drawn) [Compound 29, 5-(4-(7-((R)-3-((5-(2-chloro-4-phenoxybenzoyl)-7H-pyrrolo[2,3-d]pyrimidin-4-yl)amino)piperidin-1-yl)heptyl)piperazin-1-yl)-2-(2,6-dioxopiperidin-3-yl)isoindoline-1,3-dione] was tested. Which DC50 did it give?
Answer: 10 to 100 nM

Question: `O=C1CCC(N2C(=O)c3ccc(N4CCN(CCCCCN5CCC[C@@H](Nc6ncnc7[nH]cc(C(=O)c8ccc(Oc9ccccc9)cc8Cl)c67)C5)CC4)cc3C2=O)C(=O)N1` (stereo partly drawn) [Compound 30, 5-(4-(5-((R)-3-((5-(2-chloro-4-phenoxybenzoyl)-7H-pyrrolo[2,3-d]pyrimidin-4-yl)amino)piperidin-1-yl)pentyl)piperazin-1-yl)-2-(2,6-dioxopiperidin-3-yl)isoindoline-1,3-dione] was tested. Which DC50 did it give?
Answer: ≥ 100 nM

Question: `O=C1CCC(N2C(=O)c3ccc(N4CCN(CCCCC(=O)N5CCC(Nc6ncnc7[nH]cc(C(=O)c8ccc(Oc9ccccc9)cc8Cl)c67)CC5)CC4)cc3C2=O)C(=O)N1` (stereo not drawn) [Compound 31, 5-(4-(5-(4-((5-(2-chloro-4-phenoxybenzoyl)-7H-pyrrolo[2,3-d]pyrimidin-4-yl)amino)piperidin-1-yl)-5-oxopentyl)piperazin-1-yl)-2-(2,6-dioxopiperidin-3-yl)isoindoline-1,3-dione] was tested. Which DC50 did it give?
Answer: 10 to 100 nM

Question: With `O=C1CC[C@H](N2Cc3cc(N4CCN(CC5CCN(C(=O)N6CCC[C@@H](Nc7ncnc8[nH]cc(C(=O)c9ccc(Oc%10ccccc%10)cc9Cl)c78)C6)CC5)CC4)ccc3C2=O)C(=O)N1` [Compound 32, (S)-3-(5-(4-((1-((R)-3-((5-(2-chloro-4-phenoxybenzoyl)-7H-pyrrolo[2,3-d]pyrimidin-4-yl)amino)piperidine-1-carbonyl)piperidin-4-yl)methyl)piperazin-1-yl)-1-oxoisoindolin-2-yl)piperidine-2,6-dione] as the compound, how does the DC50 read?
Answer: 10 to 100 nM

Question: How did the DC50 turn out when `O=C1CC[C@H](N2C(=O)c3ccc(N4CCN(CC5CCN(C(=O)N6CCC[C@@H](Nc7ncnc8[nH]cc(C(=O)c9ccc(Oc%10ccccc%10)cc9Cl)c78)C6)CC5)CC4)cc3C2=O)C(=O)N1` [Compound 33, 5-(4-((1-((R)-3-((5-(2-chloro-4-phenoxybenzoyl)-7H-pyrrolo[2,3-d]pyrimidin-4-yl)amino)piperidine-1-carbonyl)piperidin-4-yl)methyl)piperazin-1-yl)-2-((S)-2,6-dioxopiperidin-3-yl)isoindoline-1,3-dione] was run?
Answer: 10 to 100 nM

Question: With `O=C1CCC(N2C(=O)c3ccc(N4CCN(CCCCCN5CCC(Nc6ncnc7[nH]cc(C(=O)c8ccc(Oc9ccccc9)cc8Cl)c67)CC5)CC4)cc3C2=O)C(=O)N1` (stereo not drawn) [Compound 34, 5-(4-(5-(4-((5-(2-chloro-4-phenoxybenzoyl)-7H-pyrrolo[2,3-d]pyrimidin-4-yl)amino)piperidin-1-yl)pentyl)piperazin-1-yl)-2-(2,6-dioxopiperidin-3-yl)isoindoline-1,3-dione] as the compound, how does the DC50 read?
Answer: < 10 nM

Question: `O=C1CCC(N2C(=O)c3cccc(C#CCCCCCCC(=O)N4CCC(Nc5ncnc6[nH]cc(C(=O)c7ccc(Oc8ccccc8)cc7Cl)c56)CC4)c3C2=O)C(=O)N1` (stereo not drawn) [Compound 35, 4-(9-(4-((5-(2-chloro-4-phenoxybenzoyl)-7H-pyrrolo[2,3-d]pyrimidin-4-yl)amino)piperidin-1-yl)-9-oxonon-1-yn-1-yl)-2-(2,6-dioxopiperidin-3-yl)isoindoline-1,3-dione] was tested. Which DC50 did it give?
Answer: ≥ 100 nM

Question: With `O=C1CCC(N2C(=O)c3cccc(C#CCCCCC(=O)N4CCC(Nc5ncnc6[nH]cc(C(=O)c7ccc(Oc8ccccc8)cc7Cl)c56)CC4)c3C2=O)C(=O)N1` (stereo not drawn) [Compound 36, 4-(7-(4-((5-(2-chloro-4-phenoxybenzoyl)-7H-pyrrolo[2,3-d]pyrimidin-4-yl)amino)piperidin-1-yl)-7-oxohept-1-yn-1-yl)-2-(2,6-dioxopiperidin-3-yl)isoindoline-1,3-dione] as the compound, how does the DC50 read?
Answer: ≥ 100 nM
